Measurements reported in patent US20020150901A1, “Novel nucleic acids, polypeptides, methods of making, and uses thereof” (priority 2000, published 2002).
Entries after “also recorded” stand apart in the source; their conditions may differ.

Tests used:
Format in all cases: cell-based
HUMAN CysLT2 GPCR = biological target: T1, HUMAN CysLT2 GPCR (Homo sapiens, UniProt Q9NS75); assay: Aequorin bioluminescence assay of intracellular calcium release, COS-7 cells expressing HUMAN CysLT2 GPCR; conditions: 200 nM antagonist injected 10 seconds before 200 nM LTC4 or LTD4
T1 construct: expressed in transfected cells; host or cells: COS-7
T1 sequence (Q9NS75 1-346): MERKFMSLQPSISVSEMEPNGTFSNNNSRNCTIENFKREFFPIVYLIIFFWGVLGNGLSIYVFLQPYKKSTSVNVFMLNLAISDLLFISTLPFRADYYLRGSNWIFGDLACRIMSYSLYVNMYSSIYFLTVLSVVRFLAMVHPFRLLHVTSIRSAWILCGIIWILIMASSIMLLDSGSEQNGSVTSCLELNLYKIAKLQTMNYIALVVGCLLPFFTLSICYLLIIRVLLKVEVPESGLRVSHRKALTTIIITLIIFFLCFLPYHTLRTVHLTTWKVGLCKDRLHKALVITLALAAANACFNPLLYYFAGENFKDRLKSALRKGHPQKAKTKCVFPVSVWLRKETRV
From the text: (§1) The photoprotein aequorin, originally isolated from luminescent jellyfish, has proven to be a highly sensitive and quantitative bioluminescence Ca^2+ indicator in cells.
(§2) The aequorin complex contains a 22,000 MW apoaequorin protein, oxygen and the luminophore, coelenterazine. When three Ca^2+ ions bind to this complex, coelenterazine is oxidized to coelenteramide, releasing carbon dioxide and light (emission maximum ˜466 nm). Aequorin has a broad detection range, allowing the measurement of Ca^2+ concentrations from ˜0.1 μM to >100 μM.
(§3) The HUMAN CysLT2 GPCR and apoaequorin cDNAs were transiently co-expressed in cells (the aequorin is targeted for expression in mitochondria). Once cells have been transfected with these expression vectors, they are incubated in a medium containing cell-permeant coelenterazine which reconstitutes the aequorin complex. After formation of the active aequorin complex, intracellular Ca^2+ release caused by activation of the HUMAN CysLT2 GPCR is measured by assaying cells for light production using a luminometer.
(§4) COS-7 cells were trypsinized and plated at 1.5×10^5 cells/well in 6 well tissue culture plates. The cells were grown overnight at 37° C. in DMEM supplemented with 10% FBS, 1% glutamine and 1% non essential amino acids. […]

human CysLT1 receptor = biological target: T2, human CysLT1 receptor (Homo sapiens, UniProt Q9Y271); assay: Aequorin bioluminescence assay of intracellular calcium release, COS-7 cells expressing human CysLT1; conditions: 200 nM antagonist injected 10 seconds before 200 nM LTC4 or LTD4
T2 construct: expressed in transfected cells; host or cells: COS-7
T2 sequence (Q9Y271 1-337): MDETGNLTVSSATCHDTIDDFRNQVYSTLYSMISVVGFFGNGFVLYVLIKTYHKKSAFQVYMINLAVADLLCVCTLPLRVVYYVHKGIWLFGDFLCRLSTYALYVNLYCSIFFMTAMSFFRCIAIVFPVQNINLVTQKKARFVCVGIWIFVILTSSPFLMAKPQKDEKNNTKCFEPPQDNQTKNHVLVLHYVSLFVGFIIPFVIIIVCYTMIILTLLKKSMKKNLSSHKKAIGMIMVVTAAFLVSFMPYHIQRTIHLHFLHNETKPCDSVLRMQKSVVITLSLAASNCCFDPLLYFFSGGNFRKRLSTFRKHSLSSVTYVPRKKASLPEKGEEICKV

[1] = system: "dummy" transfected control COS-7 cells; assay: Aequorin bioluminescence assay, "dummy" transfected control COS-7 cells (no leukotriene receptor); conditions: 200 nM agonist, COS-7 cells with "dummy" insert and aequorin
From the text: as §1, §2, §3, §4

| Compound | block of LTC4 or LTD4 induced receptor activation by antagonist (HUMAN CysLT2 GPCR) | block of LTC4 or LTD4 induced receptor activation by antagonist (human CysLT1 receptor) | aequorin activation by agonist [1] |
| --- | --- | --- | --- |
| CN(C)C(=O)CCSC(SCCC(=O)O)c1cccc(/C=C/c2ccc3ccc(Cl)cc3n2)c1 (stereo not shown) [MK571] | neither antagonist significantly inhibited; also recorded: failed to block; also recorded: resistance to inhibition | effectively blocked | – |
| CCCCC/C=C\C\C=C/C=C/C=C/[C@@H](SC[C@H](N)C(=O)NCC(=O)O)[C@@H](O)CCCC(=O)O [LTD4] | – | – | not on the “dummy” transfected control cells |
| CCCCC/C=C\C\C=C/C=C/C=C/[C@@H](SC[C@H](NC(=O)CC[C@H](N)C(=O)O)C(=O)NCC(=O)O)[C@@H](O)CCCC(=O)O [LTC4] | – | – | not on the “dummy” transfected control cells |
